Values of other authors as cited in patent US9149490B2, “Acne treatment composition and methods for using” (Skinvisible Pharmaceuticals, Inc., priority 2006, dated 2015).

Settings: in vivo

Substance	dermal toxicity
Poly(vinylpyrrolidone/1-hexadecene) [PVPH]	no demonstrable dermal toxicity
Poly(vinylpyrrolidone/1-eicosene) [PVPE]	no demonstrable dermal toxicity
